Test results taken from patent publication EP4600243A2, “NOVEL BICYCLIC HETEROCYCLYL COMPOUNDS AND USE THEREOF” (Jeil Pharmaceutical Co., Ltd., priority 2022, dated 2024).

biological target: T1, protein-protein interaction between SOS1 and KRAS G12C (Homo sapiens, UniProt Q07889); assay: KRAS::SOS1 HTRF binding analysis (KRAS G12C/SOS1 binding kit); settings: compound at 0.1 uM
T1 construct: purchased Cisbio 64KRASG12PEG
T1 sequence (Q07889 1-1333): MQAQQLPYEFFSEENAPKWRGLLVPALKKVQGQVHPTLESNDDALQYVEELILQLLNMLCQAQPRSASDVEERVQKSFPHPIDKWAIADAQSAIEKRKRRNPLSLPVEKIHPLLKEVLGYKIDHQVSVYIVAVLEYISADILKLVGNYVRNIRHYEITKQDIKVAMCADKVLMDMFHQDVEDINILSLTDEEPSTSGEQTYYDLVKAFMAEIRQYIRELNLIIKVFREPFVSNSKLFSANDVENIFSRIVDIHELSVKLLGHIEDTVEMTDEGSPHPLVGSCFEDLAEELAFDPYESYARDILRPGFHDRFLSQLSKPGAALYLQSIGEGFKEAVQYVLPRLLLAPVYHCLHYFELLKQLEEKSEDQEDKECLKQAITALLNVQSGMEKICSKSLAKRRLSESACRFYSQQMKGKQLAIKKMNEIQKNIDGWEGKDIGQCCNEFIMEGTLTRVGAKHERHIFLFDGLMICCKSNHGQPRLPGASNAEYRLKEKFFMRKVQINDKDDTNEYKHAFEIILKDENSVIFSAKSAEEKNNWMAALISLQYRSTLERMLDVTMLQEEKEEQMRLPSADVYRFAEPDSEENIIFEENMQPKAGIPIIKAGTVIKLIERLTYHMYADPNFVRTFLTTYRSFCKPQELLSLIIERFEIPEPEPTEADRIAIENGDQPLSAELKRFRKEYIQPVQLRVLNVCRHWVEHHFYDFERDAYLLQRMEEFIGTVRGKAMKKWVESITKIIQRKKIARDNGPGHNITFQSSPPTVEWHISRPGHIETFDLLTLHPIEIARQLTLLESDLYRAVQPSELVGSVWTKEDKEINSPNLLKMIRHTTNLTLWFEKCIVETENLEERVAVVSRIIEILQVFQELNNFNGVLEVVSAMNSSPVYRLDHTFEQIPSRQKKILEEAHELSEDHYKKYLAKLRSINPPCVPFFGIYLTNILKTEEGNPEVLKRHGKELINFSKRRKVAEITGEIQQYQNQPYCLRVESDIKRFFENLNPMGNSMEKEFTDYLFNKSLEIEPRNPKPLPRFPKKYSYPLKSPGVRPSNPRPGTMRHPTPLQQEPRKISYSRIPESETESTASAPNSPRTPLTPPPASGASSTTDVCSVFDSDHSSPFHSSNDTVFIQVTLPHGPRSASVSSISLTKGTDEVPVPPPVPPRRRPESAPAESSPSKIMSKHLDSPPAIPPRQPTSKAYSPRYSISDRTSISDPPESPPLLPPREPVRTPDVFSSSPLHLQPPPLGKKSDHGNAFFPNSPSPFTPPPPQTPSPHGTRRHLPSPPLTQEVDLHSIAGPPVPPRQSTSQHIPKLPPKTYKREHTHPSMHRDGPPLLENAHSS
Procedure: 1-1. KRAS::SOS1 HTRF binding analysis
An SOS1 inhibitory ability of the example compounds of the present invention was confirmed by identifying the effect of inhibiting a protein-protein interaction between SOS1 and KRAS G12C of the compounds according to examples of the present invention.
Specifically, a KRAS G12C/SOS1 binding kit (64KRASG12PEG, Cisbio, France) was purchased and used. 2 µℓ of Tag1-KRAS G12C and 2 µℓ of GTP were premixed and dispensed 4 µl each into a 384 well plate (6007290, PerkinElmer, USA). 2 µℓ of the compound and 4 µℓ of Tag2-SOS1 were placed and then 10 µℓ of premixed Anti-Tag1 XL665 antibody and Anti-Tag2 Tb cryptate antibody was dispensed to each well. The plates were sealed and allowed to react at room temperature for one hour and 40 minutes, and then 665 nm wavelength and 620 nm wavelength were measured using a HTRF® compatible reader (Synergy H4, BioTeK, USA), and the ratio of receptor and donor emission signals for each well was calculated as 665 nm/620 nm×10^4.
(+++: more than 70 to 100% inhibition, ++: more than 40 to 70% inhibition, +: 0 to 40% inhibition) [Table 4]

| SMILES | inhibition at 0.1 µM [%] |
| --- | --- |
| C[C@@H](Nc1cnnc2ccc(N3CC[C@H](O)C3)cc12)c1cccc(C(F)F)c1F [Example 28, (S)-1-(4-(((R)-1-(3-(difluoromethyl)-2-fluorophenyl)ethyl)amino)cinnolin-6-yl)pyrrolidin-3-ol] | 0 to 40 |
| C[C@@H](Nc1cnnc2ccc(N3C[C@H]4COC[C@H]4C3)cc12)c1cccc(C(F)F)c1F [Example 29, N-((R)-1-(3-(difluoromethyl)-2-fluorophenyl)ethyl)-6-((3 aR,6aS)-tetrahydro-1H-furo[3,4-c]pyrrol-5(3H)-yl)cinnolin-4-amine] | 40 to 70 |
| C[C@@H](Nc1cnnc2ccc(N3CC(O)C3)cc12)c1cccc(C(F)F)c1F [Example 30, (R)-1-(4-((1-(3-(difluoromethyl)-2-fluorophenyl)ethyl)amino)cinnolin-6-yl)azetidin-3-ol] | 0 to 40 |
| COC1CN(c2ccc3nncc(N[C@H](C)c4cccc(C(F)F)c4F)c3c2)C1 [Example 31, (R)-N-(1-(3-(difluoromethyl)-2-fluorophenyl)ethyl)-6-(3-methoxyazetidin-1-yl)cinnolin-4-amine] | 0 to 40 |
| C[C@@H](Nc1cnnc2ccc(N3CC(C)(O)C3)cc12)c1cccc(C(F)F)c1F [Example 32, (R)-1-(4-((1-(3-(difluoromethyl)-2-fluorophenyl)ethyl)amino)cinnolin-6-yl)-3-methylazetidin-3-ol] | 0 to 40 |
| COC1(C)CN(c2ccc3nncc(N[C@H](C)c4cccc(C(F)F)c4F)c3c2)C1 [Example 33, (R)-N-(1-(3-(difluoromethyl)-2-fluorophenyl)ethyl)-6-(3-methoxy-3-methylazetidin-1-yl)cinnolin-4-amine] | 0 to 40 |
| COC1CC2(C1)CN(c1ccc3nncc(N[C@H](C)c4cccc(C(F)F)c4F)c3c1)C2 [Example 34, (R)-N-(1-(3-(difluoromethyl)-2-fluorophenyl)ethyl)-6-(6-methoxy-2-azaspiro[3.3]heptan-2-yl)cinnolin-4-amine] | 0 to 40 |
| C[C@@H](Nc1cnnc2ccc(N[C@@H]3CCOC3)cc12)c1cccc(C(F)F)c1F [Example 35, N4-((R)-1-(3-(difluoromethyl)-2-fluorophenyl)ethyl)-N6-((R)-tetrahydrofuran-3-yl)cinnolin-4,6-diamine] | 0 to 40 |
| C[C@@H](Nc1cnnc2ccc(N[C@H]3CCOC3)cc12)c1cccc(C(F)F)c1F [Example 36, N4-((R)-1-(3-(difluoromethyl)-2-fluorophenyl)ethyl)-N6-((S)-tetrahydrofuran-3-yl)cinnolin-4,6-diamine] | 0 to 40 |
| C[C@@H](Nc1cnnc2ccc(NC3CCOCC3)cc12)c1cccc(C(F)F)c1F [Example 37, (R)-N4-(1-(3-(difluoromethyl)-2-fluorophenyl)ethyl)-N6-(tetrahydro-2H-pyran-4-yl)cinnolin-4,6-diamine] | 0 to 40 |
| C[C@@H](Nc1cnnc2ccc(N[C@@H]3CCN(C)C3)cc12)c1cccc(C(F)F)c1F [Example 38, N4-((R)-1-(3-(difluoromethyl)-2-fluorophenyl)ethyl)-N6-((R)-1-methylpyrrolidin-3-yl)cinnolin-4,6-diamine] | 40 to 70 |
| C[C@@H](Nc1cnnc2ccc(N[C@@H]3CCNC3)cc12)c1cccc(C(F)F)c1F [Example 39, N4-((R)-1-(3-(difluoromethyl)-2-fluorophenyl)ethyl)-N6-((R)-pyrrolidin-3-yl)cinnolin-4,6-diamine] | 70 to 100 |
| C[C@@H](Nc1cnnc2ccc(N[C@H]3CCNC3)cc12)c1cccc(C(F)F)c1F [Example 40, N4-((R)-1-(3-(difluoromethyl)-2-fluorophenyl)ethyl)-N6-((S)-pyrrolidin-3-yl)cinnolin-4,6-diamine] | 40 to 70 |
| C[C@@H](Nc1cnnc2ccc(N3CCN(C(=O)C4COC4)CC3)cc12)c1cccc(C(F)F)c1F [Example 41, (R)-(4-(4-(1-(3-(difluoromethyl)-2-fluorophenyl)ethylamino)cinnolin-6-yl)piperazin-1-yl)(oxetan-3-yl)methanone] | 70 to 100 |
| C[C@@H](Nc1cnnc2ccc(N3CC4CC(C3)O4)cc12)c1cccc(C(F)F)c1 [Example 42, 6-(6-oxa-3-azabicyclo[3.1.1]heptan-3-yl)-N-((R)-1-(3-(difluoromethyl)phenyl)ethyl)cinnolin-4-amine] | 0 to 40 |
| C[C@@H](Nc1cnnc2ccc(N3CCC(C)(O)CC3)cc12)c1cccc(C(F)F)c1 [Example 43, (R)-1-(4-((1-(3-(difluoromethyl)phenyl)ethyl)amino)cinnolin-6-yl)-4-methylpiperidin-4-ol] | 0 to 40 |
| C[C@@H](Nc1cnnc2ccc(N3C[C@H]4C[C@@H]3CO4)cc12)c1cccc(C(F)F)c1 [Example 44, 6-((1R,4R)-2-oxa-5-azabicyclo[2.2.1]heptan-5-yl)-N-((R)-1-(3-(difluoromethyl)phenyl)ethyl)cinnolin-4-amine] | 0 to 40 |
| C[C@@H](Nc1cnnc2ccc(N3CC(C)(O)C3)cc12)c1cccc(C(F)F)c1 [Example 45, (R)-1-(4-((1-(3-(difluoromethyl)phenyl)ethyl)amino)cinnolin-6-yl)-3-methylazetidin-3-ol] | 0 to 40 |
| C[C@@H](Nc1cnnc2ccc(N3CC4CC(C3)O4)cc12)c1cccc(C(F)(F)F)c1 [Example 47, 6-(6-oxa-3-azabicyclo[3.1.1]heptan-3-yl)-N-((R)-1-(3-(trifluoromethyl)phenyl)ethyl)cinnolin-4-amine] | 0 to 40 |
| Cc1c([C@@H](C)Nc2cnnc3ccc(N4CC5CC(C4)O5)cc23)cccc1C(F)(F)F [Example 48, 6-(6-oxa-3-azabicyclo[3.1.1]heptan-3-yl)-N-((R)-1-(2-methyl-3-(trifluoromethyl)phenyl)ethyl)cinnolin-4-amine] | 0 to 40 |
| Cc1c([C@@H](C)Nc2cnnc3ccc(N4CC5(CN(C)C5)C4)cc23)cccc1C(F)(F)F [Example 49, (R)-N-(1-(2-methyl-3-(trifluoromethyl)phenyl)ethyl)-6-(6-methyl-2,6-diazaspiro[3.3]heptan-2-yl)cinnolin-4-amine] | 0 to 40 |
| Cc1c(C#N)cccc1[C@@H](C)Nc1cnnc2ccc(N3CC4CC(C3)O4)cc12 [Example 50, 3-((1R)-1-((6-(6-oxa-3-azabicyclo[3.1.1]heptan-3-yl)cinnolin-4-yl)amino)ethyl)-2-methylbenzonitrile] | 0 to 40 |
| Cc1c(C#N)cccc1[C@@H](C)Nc1cnnc2ccc(N3CCC(C)(O)CC3)cc12 [Example 51, (R)-3-(1-((6-(4-hydroxy-4-methylpiperidin-1-yl)cinnolin-4-yl)amino)ethyl)-2-methylbenzonitrile] | 0 to 40 |
| Cc1c(C#N)cccc1[C@@H](C)Nc1cnnc2ccc(C3=CCN(C)CC3)cc12 [Example 52, (R)-2-methyl-3-(1-(6-(1-methyl-1,2,3,6-tetrahydropyridin-4-yl)cinnolin-4-ylamino)ethyl)benzonitrile] | 0 to 40 |
| C[C@@H](Nc1cnnc2ccc(C3=CCN(C)CC3)cc12)c1cccc(C#N)c1 [Example 53, (R)-3-(1-(6-(1-methyl-1,2,3,6-tetrahydropyridin-4-yl)cinnolin-4-ylamino)ethyl)benzonitrile] | 0 to 40 |
| C[C@@H](Nc1cnnc2ccc(N[C@@H]3CCNC3)cc12)c1cccc(C#N)c1 [Example 54, 3-((R)-1-(6-((R)-pyrrolidin-3-ylamino)cinnolin-4-ylamino)ethyl)benzonitrile] | 0 to 40 |
